Measured values taken from PubChem BioAssay (NCI).
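48-hour exposure; five concentrations; linearly interpolated endpoints. TGI: concentration producing complete growth inhibition.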

Columns and labels:
Assay in all cases: NCI tumour cell line growth inhibition, 48 h
UACC-62 melanoma = system: UACC-62 melanoma
RPMI-8226 leukemia = system: RPMI-8226 leukemia
HS 578T breast = system: HS 578T breast
SK-MEL-5 melanoma = system: SK-MEL-5 melanoma
NCI-H522 lung = system: NCI-H522 lung
NCI-H23 lung = system: NCI-H23 lung
CCRF-CEM leukemia = system: CCRF-CEM leukemia
M14 melanoma = system: M14 melanoma
OVCAR-5 ovarian = system: OVCAR-5 ovarian
HOP-62 NSCLC = system: HOP-62 NSCLC
MOLT-4 leukemia = system: MOLT-4 leukemia
U251 CNS = system: U251 CNS
OVCAR-4 ovarian = system: OVCAR-4 ovarian
786-0 renal = system: 786-0 renal
SF-268 CNS = system: SF-268 CNS
NCI/ADR-RES ovarian = system: NCI/ADR-RES ovarian
COLO 205 colon = system: COLO 205 colon
DU-145 prostate = system: DU-145 prostate
BT-549 breast = system: BT-549 breast
A498 renal = system: A498 renal

SMILES	TGI (UACC-62 melanoma) [µM]	TGI (RPMI-8226 leukemia) [µM]	TGI (HS 578T breast) [µM]	TGI (SK-MEL-5 melanoma) [µM]	TGI (NCI-H522 lung) [µM]	TGI (NCI-H23 lung) [µM]	TGI (CCRF-CEM leukemia) [µM]	TGI (M14 melanoma) [µM]	TGI (OVCAR-5 ovarian) [µM]	TGI (HOP-62 NSCLC) [µM]	TGI (MOLT-4 leukemia) [µM]	TGI (U251 CNS) [µM]	TGI (OVCAR-4 ovarian) [µM]	TGI (786-0 renal) [µM]	TGI (SF-268 CNS) [µM]	TGI (NCI/ADR-RES ovarian) [µM]	TGI (COLO 205 colon) [µM]	TGI (DU-145 prostate) [µM]	TGI (BT-549 breast) [µM]	TGI (A498 renal) [µM]
Cc1cccc(Nc2nc3ccccc3nc2NS(=O)(=O)c2ccccc2)c1	> 100	> 100	> 100	> 100	73.9	93.1	86.5	> 100	> 100	87.1	61.6	59	19.7	> 100	> 100	> 100	30.7	> 100	> 100	
O=c1oc2ccccc2c(O)c1C(c1cccc(C(c2c(O)c3ccccc3oc2=O)c2c(O)c3ccccc3oc2=O)c1)c1c(O)c2ccccc2oc1=O	95.7	76.6	> 100	95.7	35.6	> 100	69.3	> 100	> 100	> 100	63.3	> 100		45.1	> 100	> 100	> 100	> 100	> 100	> 100
C[C@H](c1ccccc1)n1c(N)c(-c2nc3ccccc3s2)c2ccc([N+](=O)[O-])cc2c1=O	> 100	1.87	> 43.7	19.8	> 19.7	6.66		> 100	> 100	56.9	19.9	53.3	> 100	> 100	> 100	22	36.4	> 38.8	> 95.9	75.2
CC(=O)N1C(CCc2ccccc2)CC(C)(C=O)C1Cc1ccc(O[Si](C(C)C)(C(C)C)C(C)C)cc1 (stereo not given)	16.3	5.03	8.96	7.64	5.95	24.3		4.49	28.8	25.9	> 21.5	13.3	16.8	6.43	15.8	31.1	7.03	18.9	29.7	14.3
CC[C@@H]([C@H](O)c1ccccc1Cl)[N+](=O)[O-]	> 100	> 100	> 100	> 100	> 100	> 100	> 100	> 100	> 100	> 100		> 100	> 100	> 100	> 100	> 100	> 100	> 100	> 100	> 100
Cc1cc(S(=O)(=O)NC2=NCCCN2)c(S)cc1Cl	90.3		86.7	32.4	62.8			86.1	> 100	> 100		> 100	> 100	56.4	> 100	> 100	> 100	> 100	36.4	> 100
Nc1n[nH]c2c(C(=O)Nc3ccc(Cl)cc3)c(N)n(N)c(=O)c12	> 100	> 100	> 100	> 100	> 100	> 100	> 100	> 100	> 100		> 100	> 100	> 100	> 100	> 100	> 100	> 100	> 100	> 100	> 100
CN1C(=O)[C@H](c2c[nH]c3ccccc23)[C@H](c2c[nH]c3ccccc23)C1=O	> 54.4	> 66.9	> 86.3	> 52.5	> 100	> 65.1	87	> 100	> 100	> 64.1	> 77	> 90.1	50.6	> 91.4	> 100	> 85.9	> 37.9	> 100	55.7	
CC(C)OC(=O)C1(C(C)C)CCc2ccc(C(=O)CCC(=O)O)cc21 (stereo not given)	> 100	> 100	> 100	> 100	> 100	> 100	> 100	> 100	> 100	> 100	> 100	> 100	> 100	> 100	> 100	> 100	> 100	> 100	> 100	
CC(C)(C)C1=CC(=C2C=Cc3cc(O)ccc3O2)C=C(C(C)(C)C)C1=O	2.76	4.21	8.22	2.94	2.99	3.58	3.45	3.29	3.94	4.02		2.69	3.04	2.68	3.87	4.9	3.25	3.03	3.55	2.85
C=CCc1oc(C)nc1CCCC	> 100		> 100	> 100	> 100	> 100	> 100	> 100	> 100	> 100	> 100	> 100	> 100	> 100	> 100	> 100	> 100	> 100	> 100	> 100
CCCCCCc1cc2cc(-c3cn4c(n3)sc3ccccc34)c(=O)oc2cc1O	5.58	> 100	> 72.1	> 100	> 100	> 100	> 100	> 100	> 100	> 100	> 100	> 100	> 100	> 100	> 100	> 100	> 100	> 100	> 100	
